The structures appear in SMILES notation. Where two headings read alike, the source gives them in different places.

The text below walks through data of patent US20240300886A1, “ARYLCYCLOHEXYLAMINE DERIVATIVES AND THEIR USE IN THE TREATMENT OF PSYCHIATRIC DISORDERS” (GILGAMESH PHARMACEUTICALS, INC., priority 2021, published 2024).

This series can be described thus: Oral bioavailability in mice, Method A (plasma and brain PK). Format: in vivo, CD-1 mice. Particulars: for half-life / Cmax / AUC(0-inf): male; for F: 10 mg/kg. The protocol:
Animals. Male CD-1 mice were used in these studies. Animals were randomly assigned to treatment groups and were fasted for 4 h before dosing.
Drugs. Test compounds were dissolved in normal saline and administered intravenously (iv) or orally (po) at a dose of 10 mg/kg (calculated based on freebase) and at a volume of 5 mL/kg body weight. Compounds were tested as the racemates or pure enantiomers, as indicated.
Sample Collection and Bioanalysis. Blood samples were collected under 2,2,2-tribromoethanol anesthesia (150 mg/kg, ip) from the orbital sinus at 0.083, 0.25, 0.5, 1, 2, 4, 8 and 24 h (4 animals per time point) into microcontainers containing K2EDTA. Immediately after collection of blood, mice were euthanized by cervical dislocation and brain samples were collected at the same time points. All samples were immediately processed, flash-frozen, and stored at −70° C. until subsequent analysis. Plasma samples were separated by centrifugation of is whole blood and aliquots (50 μL) were mixed with 200 μL of internal standard solution (400 ng/mL in 1:1 v/v CH3CN:MeOH). After mixing by pipetting and centrifuging for 4 min at 6,000 rpm, 0.5 μL of each supernatant was analyzed for drug using a fit-for-purpose liquid chromatography-tandem mass spectrometry (LC-MS/MS) method, with authentic samples of each analyte used for calibration and identification. Brain samples (weight 100 mg±1 mg) were dispersed in 500 μL of internal standard solution (400 ng/mL in 4:1 v/v MeOH:water) using zirconium oxide beads (115 mg±5 mg) in The Bullet Blender® homogenizer for 30 s at speed 8. After homogenization, the samples were centrifuged for 4 min at 14,000 rpm and 0.5 μL of each supernatant was analyzed for drug using a fit-for-purpose LC-MS/MS method, with authentic samples of each analyte used for calibration and identification.
Data Analysis. The drug concentrations of samples below the lower limit of quantitation (LLOQ) were designated as zero. Pharmacokinetic data analysis was performed using noncompartmental, bolus injection or extravascular input analysis models in WinNonlin 5.2 (PharSight). Data points below LLOQ were presented as missing to improve validity of tin calculations.

Broadly, the Cmax is the maximum level reached in the sampled fluid or tissue. In the case of `CNC1(c2ccccc2Cl)CCCCC1=O` (racemic) [racemic ketamine, ketamine], the half-life amounted to 8.66 min (CD-1, mouse brain, 10 mg/kg iv, read-out: t1/2 (iv)); 12.2 min (CD-1, mouse brain, 10 mg/kg po, read-out: t1/2 (po)); 8.46 min (CD-1, mouse plasma, 10 mg/kg iv, read-out: t1/2 (iv)); 11.5 min (CD-1, mouse plasma, 10 mg/kg po, read-out: t1/2 (po)). Also, the concentration (CD-1, mouse brain, 10 mg/kg po) peaked (Cmax) at 521 ng/g and the Cmax (CD-1, mouse plasma, 10 mg/kg po) came out at 253 ng/mL. Moreover, the AUC(0-inf) was 633 ng·h/mL (CD-1, mouse plasma, 10 mg/kg iv, read-out: AUC0-inf (iv) (converted)) and 96.8 ng·h/mL (CD-1, mouse plasma, 10 mg/kg po, read-out: AUC0-inf (po) (converted)). Moreover, the “AUC0-inf (iv)” value (mouse brain, 10 mg/kg iv) is recorded as 97,000 ng*min/g. Also, under “mouse brain, 10 mg/kg po”, the “AUC0-inf (po)” value is 6,030 ng*min/g. Further, the F runs as follows: (mouse brain, calculated based on brain exposure) 6.2%; (mouse plasma) 15%.
